Measured values from patent US20120028284A1, “TRAPPING COMPOUNDS AND METHOD FOR IDENTIFYING REACTIVE METABOLITES” (EISAI R&D MANAGEMENT CO., LTD., priority 2009, published 2012).

What was measured:
[1] = tested on: human liver microsomal preparations (cytochrome P450 enzyme preparations); test: Trapping of "soft" and "hard" reactive metabolites in microsomal incubations with compound of formula (I), neutral loss LC-MS/MS; format: in vitro ADME; conditions: 50 μM test compound, 2 mg/ml microsomal proteins, 3 mM NADPH, 37° C.; for adducts of reactive metabolites with ECHK detected: trapping agent ECHK 1 mM; for adducts of reactive metabolites with ECHK detected / adducts of reactive metabolites with EHCK detected: neutral loss scanning of 129 Da; for adducts of reactive metabolites with ECO detected: trapping agent ECO 1 mM, neutral loss scanning of 129 Da or 147 Da; for adducts of reactive metabolites with EHCK detected: trapping agent EHCK 1 mM
Description: All microsomal incubations described herein were performed at 37° C. in a water bath or on a heat block. The test compound was mixed with human liver microsomal preparations (cytochrome P450 enzyme preparations) in 100 mM potassium phosphate buffer (pH7.4) including 0.1 mM EDTA and the compound of formula (I). The resulting mixtures were pre-warmed at 37° C. for 5 min. To the reaction mixtures was then added the co-factor-NADPH (to initiate the reaction) to yield a final volume of 500 μl.
The resulting reaction mixtures contained 50 μM test compounds, 2 mg/ml microsomal proteins, 1 mM mixture of compound of formula (I) and 3 mM NADPH.
After 15 or 60 min incubation, the reactions were terminated by the addition of 1000 μl of 50% methanol/50% acetonitrile. The resulting mixtures were centrifuged at 10,000 g for 10 min at 4° C. to pellet the precipitated protein, and the supernatants were dried up. The resulting residue was solubilized with 50% methanol.
(§1) MS analyses were performed on an LTQ Orbitrap FTMS (Thermo Fisher Scientific, Inc., Bremen, Germany). The ESI ion source was operated in the positive ion mode. The entire eluent was sprayed into the mass spectrometer at +5 kV and desolvation of the solvent droplets was further aided by a heated capillary temperature of 350° C. Mass spectra collected in the neutral loss scanning mode were obtained by scanning over the range m/z 200-1100 at 30000 resolution.
For complete profiling of reactive metabolites, samples were first subjected to chromatographic separations with a Prominence LC system with an auto-sampler (Shimadzu Corp., Kyoto, Japan) and eluents were introduced to the LTQ Orbitrap FTMS operated in the neutral loss scanning mode. An L-column ODS (Octadecylsilyl-silica gels; 2.1×150 mm, Chemicals Evaluation and Research Institute, Tokyo, Japan) was used for the chromatographic separation. The chromatographic system used a binary solvent system delivered as a gradient of solvent A (5 mM ammonium acetate) and solvent B (95% acetonitrile included 5 mM ammonium acetate). […] The solvent composition was then held at 100% B for 8 min before re-equilibration at initial conditions. LC-MS/MS analyses were carried out on 20 μl aliquots of cleaned samples. Data acquisition was carried out using the Xcaliber version 2.0 software (Thermo Fisher Scientific, Inc., Bremen, Germany).

[2] = Trapping of acylglucuronides by incubation with compound of formula (I) in buffer, neutral loss LC-MS/MS; conditions: 100 μM diclofenac acylglucuronide, pH7.4 buffer, 60 min, 37° C.
Description: The resulting mixtures were pre-warmed at 37° C. for 5 min.
as §1
For complete profiling of reactive metabolites, samples were first subjected to chromatographic separations with a Prominence LC system with an auto-sampler (Shimadzu Corp., Kyoto, Japan) and eluents were introduced to the LTQ Orbitrap FTMS operated in the neutral loss scanning mode. […] The solvent composition was then held at 100% B for 8 min before re-equilibration at initial conditions. […] Data acquisition was carried out using the Xcaliber version 2.0 software (Thermo Fisher Scientific, Inc., Bremen, Germany).

| adducts of reactive metabolites with ECHK detected [1] | adducts of reactive metabolites with ECO detected [1] | adducts of reactive metabolites with EHCK detected [1] | SMILES | adduct of acylglucuronide with ECHK detected ([2]; trapping agent ECHK 1 mM, neutral loss scanning of 129 Da) | adduct of acylglucuronide with ECO detected ([2]; trapping agent ECO 1 mM, neutral loss scanning of 129 Da and 147 Da) | adduct of acylglucuronide with EHCK detected ([2]; trapping agent EHCK 1 mM, neutral loss scanning of 129 Da) |
| --- | --- | --- | --- | --- | --- | --- |
| three adducts | three adducts | three adducts | c1coc(-c2cccs2)c1 [2-[2-thienyl]-furan, 2-[2-Thienyl]-furan] | – | – | – |
| – | – | – | O=C(Cc1ccccc1Nc1c(Cl)cccc1Cl)O[C@@H]1O[C@H](C(=O)O)[C@@H](O)[C@H](O)[C@H]1O [diclofenac acylglucuronide, Diclofenac acylglucuronide] | adduct of diclofenac acylglucuronide with ECHK which was detected | adduct of diclofenac acylglucuronide with ECO which was detected | adduct of diclofenac acylglucuronide with EHCK which was detected |
| two adducts | two adducts | two adducts | O=C(O)Cc1ccccc1Nc1c(Cl)cccc1Cl [diclofenac, Diclofenac] | – | – | – |
